# Assay results reported in patent US10670605B2, “Cysteine reactive probes and uses thereof” (The Scripps Research Institute, priority 2015, dated 2020).
# Key:
# Experiment in all cases: Competitive isoTOP-ABPP in situ (fragment-treated cells)
# Type in all cases: cell-based
# [1] = target: cysteines in MDA-MB-231 and Ramos cells (Homo sapiens, UniProt Q9NUY8)
# [2] = target: T1, cysteines in MDA-MB-231 and Ramos cells (Homo sapiens, UniProt P13667)
# T1 sequence (P13667 21-645): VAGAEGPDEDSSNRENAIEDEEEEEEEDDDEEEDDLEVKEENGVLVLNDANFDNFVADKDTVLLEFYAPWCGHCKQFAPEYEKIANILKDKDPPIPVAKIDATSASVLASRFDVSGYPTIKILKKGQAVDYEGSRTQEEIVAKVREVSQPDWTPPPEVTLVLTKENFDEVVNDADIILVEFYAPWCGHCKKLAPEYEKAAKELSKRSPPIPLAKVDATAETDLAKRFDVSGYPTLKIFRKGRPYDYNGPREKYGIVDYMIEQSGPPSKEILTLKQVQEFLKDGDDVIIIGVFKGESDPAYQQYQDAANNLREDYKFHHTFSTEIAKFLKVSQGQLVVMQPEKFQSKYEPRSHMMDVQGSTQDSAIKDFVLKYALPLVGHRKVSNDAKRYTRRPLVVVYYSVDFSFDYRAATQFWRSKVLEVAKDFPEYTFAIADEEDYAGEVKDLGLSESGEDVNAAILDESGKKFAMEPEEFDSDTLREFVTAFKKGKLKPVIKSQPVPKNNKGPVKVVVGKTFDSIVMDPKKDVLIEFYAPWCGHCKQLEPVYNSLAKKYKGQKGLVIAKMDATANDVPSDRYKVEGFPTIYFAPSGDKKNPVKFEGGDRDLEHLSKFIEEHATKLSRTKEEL
# [3] = target: T2, cysteines in MDA-MB-231 and Ramos cells (Homo sapiens, UniProt P49588)
# T2 sequence (P49588 1-968): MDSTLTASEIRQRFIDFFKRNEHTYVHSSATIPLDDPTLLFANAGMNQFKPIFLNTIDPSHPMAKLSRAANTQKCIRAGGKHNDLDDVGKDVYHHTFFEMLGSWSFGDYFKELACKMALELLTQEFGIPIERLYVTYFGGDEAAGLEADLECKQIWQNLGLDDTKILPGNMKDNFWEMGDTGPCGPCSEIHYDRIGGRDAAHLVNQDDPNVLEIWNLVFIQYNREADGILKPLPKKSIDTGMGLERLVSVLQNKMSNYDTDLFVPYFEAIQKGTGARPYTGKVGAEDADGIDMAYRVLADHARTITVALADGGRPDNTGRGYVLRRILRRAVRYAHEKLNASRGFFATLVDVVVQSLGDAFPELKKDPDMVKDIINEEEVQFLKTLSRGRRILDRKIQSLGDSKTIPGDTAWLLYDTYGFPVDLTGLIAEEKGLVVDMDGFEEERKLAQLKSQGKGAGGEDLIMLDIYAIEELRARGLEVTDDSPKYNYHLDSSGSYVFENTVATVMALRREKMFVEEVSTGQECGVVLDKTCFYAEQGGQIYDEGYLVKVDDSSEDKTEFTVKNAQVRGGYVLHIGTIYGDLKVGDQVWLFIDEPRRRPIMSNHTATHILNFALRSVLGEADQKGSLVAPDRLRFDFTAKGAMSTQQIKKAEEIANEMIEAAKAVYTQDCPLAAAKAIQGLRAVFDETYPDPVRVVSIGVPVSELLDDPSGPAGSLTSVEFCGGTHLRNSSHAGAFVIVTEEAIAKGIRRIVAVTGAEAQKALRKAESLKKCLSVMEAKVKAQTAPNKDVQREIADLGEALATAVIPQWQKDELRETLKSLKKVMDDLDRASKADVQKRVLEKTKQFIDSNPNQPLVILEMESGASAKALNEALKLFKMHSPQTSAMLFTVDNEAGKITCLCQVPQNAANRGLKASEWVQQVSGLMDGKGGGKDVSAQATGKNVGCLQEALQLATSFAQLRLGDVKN
# [4] = target: T3, cysteines in MDA-MB-231 and Ramos cells (Homo sapiens, UniProt Q13162)
# T3 sequence (Q13162 38-271): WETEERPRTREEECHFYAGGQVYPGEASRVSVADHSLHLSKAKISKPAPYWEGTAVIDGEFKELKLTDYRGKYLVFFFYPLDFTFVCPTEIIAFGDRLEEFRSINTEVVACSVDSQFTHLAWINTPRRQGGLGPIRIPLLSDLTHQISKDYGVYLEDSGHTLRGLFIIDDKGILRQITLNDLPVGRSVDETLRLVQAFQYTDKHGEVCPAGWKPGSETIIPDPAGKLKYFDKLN
# [5] = target: T4, cysteines in MDA-MB-231 and Ramos cells (Homo sapiens, UniProt Q13155)
# T4 sequence (Q13155 1-320): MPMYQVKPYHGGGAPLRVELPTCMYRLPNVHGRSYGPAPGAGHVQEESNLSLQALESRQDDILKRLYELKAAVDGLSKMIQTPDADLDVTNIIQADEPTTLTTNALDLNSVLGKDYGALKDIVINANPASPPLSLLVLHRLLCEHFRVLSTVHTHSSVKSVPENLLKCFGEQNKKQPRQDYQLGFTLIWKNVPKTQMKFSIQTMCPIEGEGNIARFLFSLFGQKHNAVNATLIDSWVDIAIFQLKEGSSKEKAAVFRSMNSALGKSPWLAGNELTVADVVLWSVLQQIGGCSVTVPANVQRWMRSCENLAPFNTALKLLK
# [6] = target: cysteines in MDA-MB-231 and Ramos cells (Homo sapiens, UniProt P61978)
# Chain of cysteines in MDA-MB-231 and Ramos cells (Homo sapiens, UniProt Q9NUY8) (Q9NUY8 whole entry): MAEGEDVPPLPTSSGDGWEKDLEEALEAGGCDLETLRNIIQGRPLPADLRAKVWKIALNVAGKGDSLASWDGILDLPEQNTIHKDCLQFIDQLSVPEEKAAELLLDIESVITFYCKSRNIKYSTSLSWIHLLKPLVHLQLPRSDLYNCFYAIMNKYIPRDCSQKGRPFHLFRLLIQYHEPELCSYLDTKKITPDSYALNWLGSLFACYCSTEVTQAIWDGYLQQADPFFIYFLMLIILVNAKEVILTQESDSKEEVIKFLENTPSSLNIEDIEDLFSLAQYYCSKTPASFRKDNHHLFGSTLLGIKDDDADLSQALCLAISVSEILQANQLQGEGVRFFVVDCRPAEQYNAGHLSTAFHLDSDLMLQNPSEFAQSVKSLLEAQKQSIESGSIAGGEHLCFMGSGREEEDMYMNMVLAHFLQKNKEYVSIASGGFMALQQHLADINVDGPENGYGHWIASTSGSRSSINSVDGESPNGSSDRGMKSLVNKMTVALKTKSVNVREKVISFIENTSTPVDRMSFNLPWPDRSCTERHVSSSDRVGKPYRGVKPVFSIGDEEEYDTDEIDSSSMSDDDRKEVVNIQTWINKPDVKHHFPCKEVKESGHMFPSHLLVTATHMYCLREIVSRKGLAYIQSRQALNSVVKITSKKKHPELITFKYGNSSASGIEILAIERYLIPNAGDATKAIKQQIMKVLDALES
Compound,"isoTOP-ABPP ratio Q9NUY8_C283 ([1]; 200 μM, insitu, 231)","isoTOP-ABPP ratio P13667_C206 ([2]; 200 μM, insitu, 231)","isoTOP-ABPP ratio P13667_C555 ([2]; 200 μM, insitu, 231)","isoTOP-ABPP ratio P49588_C773 ([3]; 200 μM, insitu, 231)","isoTOP-ABPP ratio Q13162_C51 ([4]; 200 μM, insitu, 231)","isoTOP-ABPP ratio Q13155_C23 ([5]; 200 μM, insitu, 231)","isoTOP-ABPP ratio Q13155_C291 ([5]; 200 μM, insitu, 231)","isoTOP-ABPP ratio P61978_C132 ([6]; 200 μM, insitu, 231)","isoTOP-ABPP ratio P13667_C555 ([2]; 200 μM, insitu, ramos)","isoTOP-ABPP ratio P49588_C773 ([3]; 200 μM, insitu, ramos)","isoTOP-ABPP ratio P61978_C132 ([6]; 200 μM, insitu, ramos)",also measured
Cn1cc(S(=O)(=O)N2CCOCC2)cc1C(=O)NC(=O)CCl [compound 11],,,,,,,,,,,,isoTOP-ABPP ratio Q9NUY8_C283 ([1]; 100 μM in situ 231): 1.1; isoTOP-ABPP ratio P13667_C206 ([2]; 100 μM in situ 231): 4.1; isoTOP-ABPP ratio P49588_C773 ([3]; 100 μM in situ 231): 0.9; isoTOP-ABPP ratio Q13162_C51 ([4]; 100 μM in situ 231): 0.9; isoTOP-ABPP ratio Q13155_C23 ([5]; 100 μM in situ 231): 1.2; isoTOP-ABPP ratio Q13155_C291 ([5]; 100 μM in situ 231): 0.9; isoTOP-ABPP ratio P61978_C132 ([6]; 100 μM in situ 231): 0.9
CC1CCc2ccccc2N1C(=O)CCl (stereo not drawn) [compound 45],2.7,1.9,2.6,10.1,2.3,4.4,7.3,9.3,,,,
COc1ccc2c(c1)CCCN2C(=O)CCl [compound 2],,,,,,,,,,,,"isoTOP-ABPP reactivity Q9NUY8_C283 TBC1D23 ([1]; 200 μM, insitu, 231): 4.1; isoTOP-ABPP reactivity P13667_C206 PDIA4 ([2]; 200 μM, insitu, 231): 2.6; isoTOP-ABPP reactivity P13667_C555 PDIA4 ([2]; 200 μM, insitu, 231): 3.2; isoTOP-ABPP reactivity Q13162_C51 PRDX4 ([4]; 200 μM, insitu, 231): 4.6; isoTOP-ABPP reactivity Q13155_C291 AIMP2 ([5]; 200 μM, insitu, 231): 20.0; isoTOP-ABPP reactivity P61978_C132 HNRNPK ([6]; 200 μM, insitu, 231): 5.0"
COc1cc2c(cc1OC)CN(C(=O)CCl)CC2 [compound 8],,,,,,,,,,,,"isoTOP-ABPP reactivity Q9NUY8_C283 TBC1D23 ([1]; 200 μM, insitu, 231): 4.9; isoTOP-ABPP reactivity P13667_C206 PDIA4 ([2]; 200 μM, insitu, 231): 15.2; isoTOP-ABPP reactivity P13667_C555 PDIA4 ([2]; 200 μM, insitu, 231): 20.0; isoTOP-ABPP reactivity P49588_C773 AARS ([3]; 200 μM, insitu, 231): 1.5; isoTOP-ABPP reactivity Q13162_C51 PRDX4 ([4]; 200 μM, insitu, 231): 1.4; isoTOP-ABPP reactivity Q13155_C23 AIMP2 ([5]; 200 μM, insitu, 231): 2.7; isoTOP-ABPP reactivity Q13155_C291 AIMP2 ([5]; 200 μM, insitu, 231): 2.4; isoTOP-ABPP reactivity P61978_C132 HNRNPK ([6]; 200 μM, insitu, 231): 4.2"
CC(C)CCOCCNC(=O)CCl [compound 27],0.6,1.0,1.2,0.6,0.9,0.7,0.7,0.9,,,,
O=C(CCl)N1CCN(S(=O)(=O)c2ccccc2F)CC1 [compound 10],2.0,3.8,3.3,2.1,2.0,2.3,1.7,5.6,1.4,1.7,1.6,
O=C(CCl)N1CCN(CC(=O)N2CCOCC2)CC1 [compound 29],,,,,,,,,1.5,1.1,1.2,"isoTOP-ABPP ratio Q9NUY8_C283 ([1]; 200 μM, insitu, ramos): 1.3; isoTOP-ABPP ratio P13667_C206 ([2]; 200 μM, insitu, ramos): 1.4; isoTOP-ABPP ratio Q13155_C23 ([5]; 200 μM, insitu, ramos): 1.6"

# Now from value to compound, other results behind:
"isoTOP-ABPP ratio Q9NUY8_C283 ([1]; 200 μM, insitu, 231)","isoTOP-ABPP ratio P13667_C206 ([2]; 200 μM, insitu, 231)","isoTOP-ABPP ratio P13667_C555 ([2]; 200 μM, insitu, 231)","isoTOP-ABPP ratio P49588_C773 ([3]; 200 μM, insitu, 231)","isoTOP-ABPP ratio Q13162_C51 ([4]; 200 μM, insitu, 231)","isoTOP-ABPP ratio Q13155_C23 ([5]; 200 μM, insitu, 231)","isoTOP-ABPP ratio Q13155_C291 ([5]; 200 μM, insitu, 231)","isoTOP-ABPP ratio P61978_C132 ([6]; 200 μM, insitu, 231)","isoTOP-ABPP ratio P13667_C555 ([2]; 200 μM, insitu, ramos)","isoTOP-ABPP ratio P49588_C773 ([3]; 200 μM, insitu, ramos)","isoTOP-ABPP ratio P61978_C132 ([6]; 200 μM, insitu, ramos)",Compound,also measured
1.0,0.9,0.8,0.7,2.4,1.4,1.7,1.0,,,,C=CC(=O)Nc1cc(F)c(N2CCN(C(=O)OC(C)(C)C)CC2)c(F)c1 [compound 38],
0.6,0.8,0.8,,,,0.8,0.9,1.1,1.2,1.1,C=CC(=O)N(Cc1cccnc1)c1cc(C(F)(F)F)cc(C(F)(F)F)c1 [compound 31],"isoTOP-ABPP ratio P13667_C206 ([2]; 200 μM, insitu, ramos): 1.1; isoTOP-ABPP ratio Q13162_C51 ([4]; 200 μM, insitu, ramos): 1.3"
